Patent US6355799B1, “Substituted benzene compounds, process for their preparation, and herbicidal and defoliant compositions containing them” (ISK Americas Incorporated, priority 1997, dated 2002)

What was measured:
Assay type in all cases: in vivo
[1] = test system: redroot pigweed (Amaranthus retroflexus, AMARE); test: Pre-emerge test, greenhouse herbicide activity screening; conditions: phytotoxicity rating 0-100, 14 days after application
Procedure, shortened: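 Compounds in acetone were track-sprayed at 187 l/ha, 15–1000 g ai/ha, onto sandy loam pots. Pre-emerge seeds were sown one day before spraying, with surface watering afterwards. Post-emerge plants were at the 2–3 leaf stage and sprayed with 0.25% v/v non-ionic surfactant. Injury was rated 0–100 at 14 days.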

[2] = test system: barnyardgrass (Echinochloa crus-galli, ECHCG); test: as above; conditions: phytotoxicity rating 0-100, 14 days after application
Procedure, shortened: (§1)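 Compounds in acetone were track-sprayed at 15–1000 g ai/ha: pre-emergence onto soil sown the previous day, then top-watered to incorporate and later bottom-watered; post-emergence onto 2–3 leaf plants with 0.25% v/v surfactant, bottom-watered only. Ratings on a 0–100 phytotoxicity scale were taken at day 14.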

[3] = test system: common ragweed (Ambrosia artemisizfolia L., AMBEL); test: as above; conditions: phytotoxicity rating 0-100, 14 days after application
Procedure, shortened: as §1

[4] = test system: green foxtail (Setaria viridis, SETVI); test: as above; conditions: phytotoxicity rating 0-100, 14 days after application
Procedure, shortened: as §1

[5] = test system: ivyleaf morningglory (Ipomoea hederacea, IPOHE); test: as above; conditions: phytotoxicity rating 0-100, 14 days after application
Procedure, shortened: as §1

[6] = test system: johnsongrass (Sorghum halepense, SORHA); test: as above; conditions: phytotoxicity rating 0-100, 14 days after application
Procedure, shortened: as §1

[7] = test system: lambsquarters (Chenopodium album, CHEAL); test: as above; conditions: phytotoxicity rating 0-100, 14 days after application
Procedure, shortened: as §1

[8] = test system: large crabgrass (Digitaria sanguinalis, DIGSA); test: as above; conditions: phytotoxicity rating 0-100, 14 days after application
Procedure, shortened: as §1

[9] = test system: sicklepod (Cassia obtusifolia, CASOB); test: as above; conditions: phytotoxicity rating 0-100, 14 days after application
Procedure, shortened: as §1

[10] = test system: velvetleaf (Abutilon theophrasti, ABUTH); test: as above; conditions: phytotoxicity rating 0-100, 14 days after application
Procedure, shortened: as §1

[11] = test system: field corn (Zea mays L., var. Dekalb 535, CORN); test: Pre-emerge test, crop safety; conditions: crop damage rating 0-100, 14 days after application
Procedure, shortened: (§2)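 Fourteen days after spraying, crop and weed injury was graded visually from 0, no effect, to 100, every plant dead. Test substances were dissolved in acetone and applied at 15–1000 g ai/ha with a flat-fan nozzle. Application was either pre-emergence, one day after sowing, or post-emergence at the 2–3 leaf stage.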

[12] = test system: upland rice (Oryza sp., var. Tebonnet, RICE); test: Pre-emerge test, crop safety; conditions: crop damage rating 0-100, 14 days after application
Procedure, shortened: as §2

[13] = test system: barnyardgrass (Echinochloa crus-galli, ECHCG); test: Post-emerge test, greenhouse herbicide activity screening; conditions: post-emerge, 14 days after application, rating scale 0-100
Procedure, shortened: as §1

[14] = test system: green foxtail (Setaria viridis, SETVI); test: as above; conditions: post-emerge, 14 days after application, rating scale 0-100
Procedure, shortened: as §1

[15] = test system: ivyleaf morningglory (Ipomoea hederacea, IPOHE); test: as above; conditions: post-emerge, 14 days after application, rating scale 0-100
Procedure, shortened: as §1

[16] = test system: johnsongrass (Sorghum halepense, SORHA); test: as above; conditions: post-emerge, 14 days after application, rating scale 0-100
Procedure, shortened: as §1

[17] = test system: lambsquarters (Chenopodium album, CHEAL); test: as above; conditions: post-emerge, 14 days after application, rating scale 0-100
Procedure, shortened: as §1

[18] = test system: large crabgrass (Digitaria sanguinalis, DIGSA); test: as above; conditions: post-emerge, 14 days after application, rating scale 0-100
Procedure, shortened: as §1

[19] = test system: redroot pigweed (Amaranthus retroflexus, AMARE); test: as above; conditions: post-emerge, 14 days after application
Procedure, shortened: as §1

[20] = test system: sicklepod (Cassia obtusifolia, CASOB); test: as above; conditions: post-emerge, 14 days after application, rating scale 0-100
Procedure, shortened: as §1

[21] = test system: velvetleaf (Abutilon theophrasti, ABUTH); test: as above; conditions: post-emerge, 14 days after application, rating scale 0-100
Procedure, shortened: as §1

[22] = test system: field corn (Zea mays L., var. Dekalb 535, CORN); test: Post-emerge test, crop safety; conditions: post-emerge, 14 days after application, rating scale 0-100
Procedure, shortened: (§3)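 Rating: 0–100 visual injury, 14 DAA. Application: acetone, 187 l/ha, 15–1000 g ai/ha, flat-fan track sprayer with nozzle 40–45 cm above soil or canopy. Post-emerge runs used 0.25% v/v surfactant on 2–3 leaf plants.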

[23] = test system: upland rice (Oryza sp., var. Tebonnet, RICE); test: Post-emerge test, crop safety; conditions: post-emerge, 14 days after application, rating scale 0-100
Procedure, shortened: as §3

Cn1c(C(F)(F)F)cc(=O)n(-c2c(F)cc(Cl)c(OCC#N)c2NC(=O)c2ccc3ccccc3c2)c1=O [2-200]
Pre-emerge Herbicidal Activity AMARE ([1]; 63 g ai/ha): 100
Pre-emerge Herbicidal Activity AMARE ([1]; 250 g ai/ha): 100
Pre-emerge Herbicidal Activity ECHCG ([2]; 63 g ai/ha): 99
Pre-emerge Herbicidal Activity ECHCG ([2]; 250 g ai/ha): 100
Pre-emerge Herbicidal Activity AMBEL ([3]; 63 g ai/ha): 100
Pre-emerge Herbicidal Activity AMBEL ([3]; 250 g ai/ha): 100
Pre-emerge Herbicidal Activity SETVI ([4]; 63 g ai/ha): 100
Pre-emerge Herbicidal Activity SETVI ([4]; 250 g ai/ha): 100
Pre-emerge Herbicidal Activity IPOHE ([5]; 63 g ai/ha): 100
Pre-emerge Herbicidal Activity IPOHE ([5]; 250 g ai/ha): 100
Pre-emerge Herbicidal Activity SORHA ([6]; 63 g ai/ha): 100
Pre-emerge Herbicidal Activity SORHA ([6]; 250 g ai/ha): 100
Pre-emerge Herbicidal Activity CHEAL ([7]; 63 g ai/ha): 100
Pre-emerge Herbicidal Activity CHEAL ([7]; 250 g ai/ha): 100
Pre-emerge Herbicidal Activity DIGSA ([8]; 63 g ai/ha): 100
Pre-emerge Herbicidal Activity DIGSA ([8]; 250 g ai/ha): 100
Pre-emerge Herbicidal Activity CASOB ([9]; 63 g ai/ha): 80
Pre-emerge Herbicidal Activity CASOB ([9]; 250 g ai/ha): 100
Pre-emerge Herbicidal Activity ABUTH ([10]; 63 g ai/ha): 100
Pre-emerge Herbicidal Activity ABUTH ([10]; 250 g ai/ha): 100
Pre-emerge Herbicidal Activity CORN ([11]; 63 g ai/ha): 75
Pre-emerge Herbicidal Activity CORN ([11]; 250 g ai/ha): 100
Pre-emerge Herbicidal Activity RICE ([12]; 63 g ai/ha): 80
Pre-emerge Herbicidal Activity RICE ([12]; 250 g ai/ha): 100
phytotoxicity rating ECHCG ([13]; 63 g ai/ha): 0
phytotoxicity rating ECHCG ([13]; 250 g ai/ha): 0
phytotoxicity rating SETVI ([14]; 63 g ai/ha): 30
phytotoxicity rating SETVI ([14]; 250 g ai/ha): 50
phytotoxicity rating IPOHE ([15]; 63 g ai/ha): 100
phytotoxicity rating IPOHE ([15]; 250 g ai/ha): 100
phytotoxicity rating SORHA ([16]; 63 g ai/ha): 0
phytotoxicity rating SORHA ([16]; 250 g ai/ha): 0
phytotoxicity rating CHEAL ([17]; 63 g ai/ha): 100
phytotoxicity rating CHEAL ([17]; 250 g ai/ha): 100
phytotoxicity rating DIGSA ([18]; 63 g ai/ha): 0
phytotoxicity rating DIGSA ([18]; 250 g ai/ha): 0
phytotoxicity rating AMARE ([19]; 63 g ai/ha, rating scale 0-100 (0 no damage, 100 complete death)): 100
phytotoxicity rating AMARE ([19]; 250 g ai/ha, rating scale 0-100): 100
phytotoxicity rating CASOB ([20]; 63 g ai/ha): 100
phytotoxicity rating CASOB ([20]; 250 g ai/ha): 100
phytotoxicity rating ABUTH ([21]; 63 g ai/ha): 100
phytotoxicity rating ABUTH ([21]; 250 g ai/ha): 100
phytotoxicity rating CORN (crop damage) ([22]; 63 g ai/ha): 10
phytotoxicity rating CORN (crop damage) ([22]; 250 g ai/ha): 20
phytotoxicity rating RICE (crop damage) ([23]; 63 g ai/ha): 10
phytotoxicity rating RICE (crop damage) ([23]; 250 g ai/ha): 20
